The text below walks through data of BindingDB's records for doi:10.1016/j.bioorg.2006.01.004 (University of Zagreb, 2006).

Structures are written as SMILES. “And” between values parts separate entries of the source, which are not always exact repeats. Equal entries are not always repeated.

The test deals with Carboxylic ester hydrolase (Equus caballus, UniProt Q9N1N9). In words: Inhibition Assay. The following applies: 40 °C. How it is done:
Butyrylcholinesterase type IV-S, lyophilized from horse serum (sigma Chemical Co.) was used without further purification. HPLC analyses (Thermo Separation Products, Spectra SYSTEM 2000) were performed on an RP-18 column at 40 C.

Chain of Carboxylic ester hydrolase (Q9N1N9 whole entry): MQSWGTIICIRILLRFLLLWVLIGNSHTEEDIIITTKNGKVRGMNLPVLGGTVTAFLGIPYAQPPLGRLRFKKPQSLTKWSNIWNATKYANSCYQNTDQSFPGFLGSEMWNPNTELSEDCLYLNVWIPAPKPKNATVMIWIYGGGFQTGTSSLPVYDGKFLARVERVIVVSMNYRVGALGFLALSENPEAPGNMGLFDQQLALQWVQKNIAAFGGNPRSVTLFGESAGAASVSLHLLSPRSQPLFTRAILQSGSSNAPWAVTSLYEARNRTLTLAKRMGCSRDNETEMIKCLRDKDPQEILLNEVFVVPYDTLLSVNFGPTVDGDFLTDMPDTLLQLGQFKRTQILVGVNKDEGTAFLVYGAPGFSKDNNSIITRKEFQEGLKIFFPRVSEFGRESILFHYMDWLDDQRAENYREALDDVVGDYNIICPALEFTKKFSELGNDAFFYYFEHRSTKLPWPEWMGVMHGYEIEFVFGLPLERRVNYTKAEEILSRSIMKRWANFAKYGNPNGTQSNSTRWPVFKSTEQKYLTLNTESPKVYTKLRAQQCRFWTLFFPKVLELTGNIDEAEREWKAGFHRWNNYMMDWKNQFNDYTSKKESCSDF

What is called Ki is a measure of affinity in units of concentration, obtained from inhibition or displacement. High values mean weaker binding, low ones tighter binding. On to `O=C(NC1C[N+]2(Cc3ccccc3)CCC1CC2)c1ccccc1` [(S)-N-Benzyl-3-benzamidoquinuclidinium bromide, 12], for which the Ki was 25.9 µM and 3.7 µM. The result for `CCCC(=O)NC1C[N+]2(Cc3ccccc3)CCC1CC2` [(S)-N-Benzyl-3-butanamidoquinuclidinium bromide, 9] reads 160 µM and 242 µM.
